The values below come from patent publication US11365188B2, “JAK inhibitors” (priority 2018, dated 2022).

Type in all cases: biochemical
The target in one assay is T1, JAK3 (Homo sapiens, UniProt P52333).
T1 sequence (P52333 1-1124): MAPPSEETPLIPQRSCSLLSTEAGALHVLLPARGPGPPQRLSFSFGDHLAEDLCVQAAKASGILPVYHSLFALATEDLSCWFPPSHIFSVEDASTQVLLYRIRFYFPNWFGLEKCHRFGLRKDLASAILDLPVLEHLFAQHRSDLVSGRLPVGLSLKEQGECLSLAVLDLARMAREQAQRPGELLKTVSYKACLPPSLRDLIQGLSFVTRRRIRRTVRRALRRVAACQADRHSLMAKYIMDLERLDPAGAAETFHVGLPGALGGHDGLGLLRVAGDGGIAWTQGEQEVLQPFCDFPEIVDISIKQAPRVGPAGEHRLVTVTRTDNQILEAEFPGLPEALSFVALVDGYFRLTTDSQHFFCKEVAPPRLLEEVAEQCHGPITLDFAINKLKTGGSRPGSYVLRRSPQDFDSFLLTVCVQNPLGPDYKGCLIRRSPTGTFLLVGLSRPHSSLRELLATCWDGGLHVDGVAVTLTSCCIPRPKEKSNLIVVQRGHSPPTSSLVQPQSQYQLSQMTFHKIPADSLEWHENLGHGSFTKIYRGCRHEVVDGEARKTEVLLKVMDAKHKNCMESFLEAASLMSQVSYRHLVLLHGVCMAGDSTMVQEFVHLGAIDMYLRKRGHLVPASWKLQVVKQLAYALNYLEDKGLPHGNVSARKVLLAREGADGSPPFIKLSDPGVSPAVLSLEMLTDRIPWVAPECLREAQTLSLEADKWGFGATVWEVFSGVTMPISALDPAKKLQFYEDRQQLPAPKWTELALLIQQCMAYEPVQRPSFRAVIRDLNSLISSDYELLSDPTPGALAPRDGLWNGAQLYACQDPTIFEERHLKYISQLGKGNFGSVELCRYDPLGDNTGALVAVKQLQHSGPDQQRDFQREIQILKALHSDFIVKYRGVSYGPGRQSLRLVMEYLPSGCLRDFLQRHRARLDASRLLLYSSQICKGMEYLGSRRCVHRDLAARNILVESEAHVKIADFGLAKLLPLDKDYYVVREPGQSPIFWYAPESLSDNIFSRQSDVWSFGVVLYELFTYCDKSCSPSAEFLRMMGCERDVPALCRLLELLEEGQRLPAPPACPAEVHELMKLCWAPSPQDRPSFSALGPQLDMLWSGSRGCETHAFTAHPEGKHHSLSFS
Description: JAK3 Assay (Caliper EZ Reader, fluoresceinated peptide). The following applies: ATP 3.5 μM; JAK3 0.5 nM; 30 minutes at room temperature; read-out: JAK3 inhibition. The procedure: JAK3 Assay 384-well plates in the left foot butoxy measured progress. The final assay volume was 25 μL, 250 nL 100× compounds, 10 μL enzyme mix and 15 μL substrate mix (fluoresceinated peptide and ATP) in assay buffer (50 mM HEPES (pH 7.5), 10 mM MgCl2, 0.01% TritonX-100, 0.01% Brij35, 0.5 mM EGTA and 2 mM DTT) prepared as test compound. By mixing the JAK3 with substrates and test compounds to start the reaction. The reaction mixture was incubated for 30 minutes at room temperature, then added 30 μL stop buffer for each sample to terminate the reaction with 50 mM EDTA. After termination of the kinase reaction, the proportion of phosphorylated product was determined as a fraction of total peptide substrate using Caliper EZ Reader II. Inhibition data were calculated by comparison with 100% of the reaction mixture without enzyme inhibition and vehicle-only reaction mixture billion % inhibition compared. The final concentration of reagents in the assays is: ATP, 3.5 μM; JAK3 fluorescent peptide (5-FAM-EEPLYWSFPAKKK-CONH2), 3 μM; JAK3, 0.5 nM; and DMSO, 1%. Dose response curve were generated to determine the concentration required for IC50 of JAK3 activity.

For a further assay, the target named is JAK1 (Homo sapiens, UniProt P23458). Kind of assay: JAK Kinase Assay (JAK1, Caliper EZ Reader, fluoresceinated peptide). Conditions: ATP 76.5 μM; JAK1 10 nM; 120 minutes at room temperature; read-out: JAK1 inhibition.
JAK1, sequence (P23458 whole entry, species assumed): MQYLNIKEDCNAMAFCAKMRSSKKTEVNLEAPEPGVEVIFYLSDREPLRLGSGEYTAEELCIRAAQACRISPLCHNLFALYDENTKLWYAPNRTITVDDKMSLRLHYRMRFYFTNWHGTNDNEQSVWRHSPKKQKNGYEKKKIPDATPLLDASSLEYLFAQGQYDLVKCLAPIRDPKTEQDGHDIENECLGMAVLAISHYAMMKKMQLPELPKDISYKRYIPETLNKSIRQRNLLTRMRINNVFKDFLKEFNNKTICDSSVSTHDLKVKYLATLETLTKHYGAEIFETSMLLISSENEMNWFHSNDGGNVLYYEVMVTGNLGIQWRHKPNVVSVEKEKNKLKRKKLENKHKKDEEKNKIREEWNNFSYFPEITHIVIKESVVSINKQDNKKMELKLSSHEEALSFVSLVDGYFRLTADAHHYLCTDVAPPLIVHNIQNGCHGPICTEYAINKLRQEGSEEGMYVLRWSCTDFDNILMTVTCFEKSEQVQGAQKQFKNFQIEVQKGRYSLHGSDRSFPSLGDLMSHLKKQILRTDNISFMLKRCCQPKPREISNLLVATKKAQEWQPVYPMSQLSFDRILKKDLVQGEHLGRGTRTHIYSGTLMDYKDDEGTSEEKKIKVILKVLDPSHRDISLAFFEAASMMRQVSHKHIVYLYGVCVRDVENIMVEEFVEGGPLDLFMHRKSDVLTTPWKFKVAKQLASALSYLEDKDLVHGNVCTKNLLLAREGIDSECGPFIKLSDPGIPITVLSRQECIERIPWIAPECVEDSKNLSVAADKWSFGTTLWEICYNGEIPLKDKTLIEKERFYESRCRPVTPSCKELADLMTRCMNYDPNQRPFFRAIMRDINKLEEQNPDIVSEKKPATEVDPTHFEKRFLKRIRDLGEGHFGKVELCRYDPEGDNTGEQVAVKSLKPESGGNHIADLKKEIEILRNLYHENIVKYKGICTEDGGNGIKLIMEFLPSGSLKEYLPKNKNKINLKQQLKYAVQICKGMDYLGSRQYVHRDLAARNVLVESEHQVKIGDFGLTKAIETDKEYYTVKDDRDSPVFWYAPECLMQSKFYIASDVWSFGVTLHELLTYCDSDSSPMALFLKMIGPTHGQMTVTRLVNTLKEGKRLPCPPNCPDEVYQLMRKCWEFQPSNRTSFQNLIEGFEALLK
The target in another assay is JAK2 (Homo sapiens, UniProt O60674). Description: JAK2 Assay (Caliper EZ Reader, fluoresceinated peptide). Conditions: ATP 11.4 μM; JAK2 0.25 nM; 15 minutes at room temperature; read-out: JAK2 inhibition. The procedure: JAK2 Assay 384-well plates in the left foot butoxy measured progress. The final assay volume was 25 μL, 250 nL 100× compounds, 10 μL enzyme mix and 15 μL substrate mix (fluoresceinated peptide and ATP) in assay buffer (50 mM HEPES (pH 7.5), 10 mM MgCl2, 0.01% TritonX-100, 0.01% Brij35, 0.5 mM EGTA and 2 mM DTT) prepared as test compound By mixing the JAK2 with substrates and test compounds to start the reaction. The reaction mixture was incubated for 15 minutes at room temperature, then added 30 μL stop buffer for each sample to terminate the reaction with 50 mM EDTA. After termination of the kinase reaction, the proportion of phosphorylated product was determined as a fraction of total peptide substrate using Caliper EZ Reader 1 Inhibition data were calculated by comparison with 100% of the reaction mixture without enzyme inhibition and vehicle-only reaction mixture billion % inhibition compared. The final concentration of reagents in the assays is: ATP, 11.4 μM; JAK2 fluorescent peptide (5-FAM-EEPLYWSFPAKKK-CONH2), 3 μM; JAK2, 0.25 nM; and DMSO, 1%. Dose response curve were generated to determine the concentration required for IC50 of JAK2 activity.
JAK2, sequence (O60674 whole entry, species assumed): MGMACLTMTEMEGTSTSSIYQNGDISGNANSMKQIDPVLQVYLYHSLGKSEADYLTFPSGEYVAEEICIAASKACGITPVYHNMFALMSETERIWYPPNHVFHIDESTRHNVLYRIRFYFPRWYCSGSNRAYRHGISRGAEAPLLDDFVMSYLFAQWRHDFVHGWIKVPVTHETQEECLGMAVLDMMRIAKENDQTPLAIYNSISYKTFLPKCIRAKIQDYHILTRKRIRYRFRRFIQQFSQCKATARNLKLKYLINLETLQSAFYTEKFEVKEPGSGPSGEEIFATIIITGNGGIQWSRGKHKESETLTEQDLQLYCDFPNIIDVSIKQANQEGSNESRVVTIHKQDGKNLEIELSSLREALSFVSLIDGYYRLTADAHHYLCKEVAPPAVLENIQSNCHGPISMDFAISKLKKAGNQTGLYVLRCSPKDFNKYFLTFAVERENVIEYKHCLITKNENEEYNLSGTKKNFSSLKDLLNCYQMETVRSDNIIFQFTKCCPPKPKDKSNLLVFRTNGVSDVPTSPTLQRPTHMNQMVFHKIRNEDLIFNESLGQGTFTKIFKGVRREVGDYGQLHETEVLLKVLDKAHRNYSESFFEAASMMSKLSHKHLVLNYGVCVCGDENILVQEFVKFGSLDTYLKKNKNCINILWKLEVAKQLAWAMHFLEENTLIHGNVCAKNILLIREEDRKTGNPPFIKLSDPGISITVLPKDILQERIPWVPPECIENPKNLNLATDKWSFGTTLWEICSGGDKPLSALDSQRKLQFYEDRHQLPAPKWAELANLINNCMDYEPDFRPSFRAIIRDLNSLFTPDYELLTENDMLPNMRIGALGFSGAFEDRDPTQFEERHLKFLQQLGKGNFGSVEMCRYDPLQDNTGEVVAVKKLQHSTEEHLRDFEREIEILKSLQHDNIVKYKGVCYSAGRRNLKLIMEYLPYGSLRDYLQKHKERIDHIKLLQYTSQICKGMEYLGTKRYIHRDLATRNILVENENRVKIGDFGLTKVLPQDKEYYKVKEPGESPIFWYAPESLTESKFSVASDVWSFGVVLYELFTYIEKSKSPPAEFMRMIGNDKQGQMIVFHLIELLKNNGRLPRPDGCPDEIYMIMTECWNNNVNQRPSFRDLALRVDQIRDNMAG

SMILES strings stand for the structures.

For `CN(c1ncnc2[nH]ccc12)C1CC2(C1)CN(C(=O)C1(C#N)CC1)C2` [Compound 19, 1-(6-(methyl(7H-pyrrolo[2,3-d]pyrimidin-4-yl)amino)-2-azaspiro[3.3]heptane-2-carbonyl)cyclopropanecarbonitrile], the IC50 on JAK3 fell in the range of 1000 to 10000 nM; at JAK1, 10 to 100 nM; at JAK2, 100 to 1000 nM.

For the molecule `CN(c1ncnc2[nH]ccc12)C1CC2(C1)CN(C(=O)c1cc3ccccc3s1)C2` [Compound 20, benzo[b]thiophen-2-yl(6-(methyl(7H-pyrrolo[2,3-d]pyrimidin-4-yl)amino)-2-azaspiro[3.3]heptan-2-yl)methanone], the IC50 fell in the range of 1000 to 10000 nM at JAK3, 10 to 100 nM at JAK1 and 1000 to 10000 nM on JAK2.

Take `CN(c1ncnc2[nH]ccc12)C1CC2(C1)CN(C(=O)CCC(F)(F)F)C2` [Compound 21, 4,4,4-trifluoro-1-(6-(methyl(7H-pyrrolo[2,3-d]pyrimidin-4-yl)amino)-2-azaspiro[3.3]heptan-2-yl)butan-1-one]: the IC50 lay in the range of 1000 to 10000 nM on JAK3, 10 to 100 nM on JAK1 and 100 to 1000 nM at JAK2.

`CN(c1ncnc2[nH]ccc12)C1CC2(C1)CN(C(=O)c1csc3ccccc13)C2` [Compound 22, benzo[b]thiophen-3-yl(6-(methyl(7H-pyrrolo[2,3-d]pyrimidin-4-yl)amino)-2-azaspiro[3.3]heptan-2-yl)methanone]: the IC50 on JAK3 is 1000 to 10000 nM; at JAK1, 10 to 100 nM; at JAK2, 1000 to 10000 nM.

As to `CN(c1ncnc2[nH]ccc12)C1CC2(C1)CN(C(=O)Cc1c[nH]c3ccccc13)C2` [Compound 23, 2-(1H-indol-3-yl)-1-(6-(methyl(7H-pyrrolo[2,3-d]pyrimidin-4-yl)amino)-2-azaspiro[3.3]heptan-2-yl)ethanone], the IC50 at JAK3 lay within 1000 to 10000 nM; on JAK1, 100 to 1000 nM; at JAK2, 1000 to 10000 nM.

Regarding `Cc1cncc(C(=O)N2CC3(CC(N(C)c4ncnc5[nH]ccc45)C3)C2)n1` [Compound 29, (6-(methyl(7H-pyrrolo[2,3-d]pyrimidin-4-yl)amino)-2-azaspiro[3.3]heptan-2-yl)(6-methylpyrazin-2-yl)methanone], the IC50 at JAK3 is ≥ 10000 nM; at JAK1 it was 100 to 1000 nM; at JAK2, 1000 to 10000 nM.

For the molecule `Cc1cc(C(=O)N2CC3(CC(N(C)c4ncnc5[nH]ccc45)C3)C2)ccc1C#N` [Compound 34, 2-methyl-4-(6-(methyl(7H-pyrrolo[2,3-d]pyrimidin-4-yl)amino)-2-azaspiro[3.3]heptane-2-carbonyl)benzonitrile], the IC50 on JAK3 was 1000 to 10000 nM; on JAK1, 10 to 100 nM; at JAK2, 1000 to 10000 nM.

Consider `CN(c1ncnc2[nH]ccc12)C1CC2(C1)CN(C(=O)c1ccc(C#N)nc1)C2` [Compound 35, 5-(6-(methyl(7H-pyrrolo[2,3-d]pyrimidin-4-yl)amino)-2-azaspiro[3.3]heptane-2-carbonyl)picolinonitrile], for which the IC50 at JAK3 fell in the range of 1000 to 10000 nM; on JAK1, 10 to 100 nM; at JAK2 it was 1000 to 10000 nM.

In the case of `CN(c1ncnc2[nH]ccc12)C1CC2(C1)CN(C(=O)c1ccc(C#N)c(Cl)c1)C2` [Compound 36, 2-chloro-4-(6-(methyl(7H-pyrrolo[2,3-d]pyrimidin-4-yl)amino)-2-azaspiro[3.3]heptane-2-carbonyl)benzonitrile], the IC50 at JAK3 lay within 1000 to 10000 nM; on JAK1, 10 to 100 nM; on JAK2 it was 1000 to 10000 nM.

Turning to `CN(c1ncnc2[nH]ccc12)C1CC2(C1)CN(C(=O)c1ccc(C#N)cc1Cl)C2` [Compound 37, 3-chloro-4-(6-(methyl(7H-pyrrolo[2,3-d]pyrimidin-4-yl)amino)-2-azaspiro[3.3]heptane-2-carbonyl)benzonitrile], the results for the IC50 on JAK3, on JAK1 and on JAK2 were 1000 to 10000 nM, 10 to 100 nM and 100 to 1000 nM, respectively.

Regarding `CN(c1ncnc2[nH]ccc12)C1CC2(C1)CN(C(=O)c1ccc(I)cc1)C2` [Compound 38, (4-iodophenyl)(6-(methyl(7H-pyrrolo[2,3-d]pyrimidin-4-yl)amino)-2-azaspiro[3.3]heptan-2-yl)methanone], the IC50 on JAK3 fell in the range of 1000 to 10000 nM; on JAK1 it was 10 to 100 nM; on JAK2 it was 100 to 1000 nM.

`CN(c1ncnc2[nH]ccc12)C1CC2(C1)CN(C(=O)c1ccc(C3CC3)cc1)C2` [Compound 39, (4-cyclopropylphenyl)(6-(methyl(7H-pyrrolo[2,3-d]pyrimidin-4-yl)amino)-2-azaspiro[3.3]heptan-2-yl)methanone]: the IC50 at JAK3 fell in the range of 1000 to 10000 nM; at JAK1, 10 to 100 nM; at JAK2, 100 to 1000 nM.

As to `C#Cc1ccc(C(=O)N2CC3(CC(N(C)c4ncnc5[nH]ccc45)C3)C2)cc1C` [Compound 40, (4-ethynyl-3-methylphenyl)(6-(methyl(7H-pyrrolo[2,3-d]pyrimidin-4-yl)amino)-2-azaspiro[3.3]heptan-2-yl)methanone], the IC50 is 1000 to 10000 nM at JAK3, ≤ 10 nM at JAK1 and 100 to 1000 nM on JAK2.

Regarding `C#Cc1ccc(C(=O)N2CC3(CC(N(C)c4ncnc5[nH]ccc45)C3)C2)c(F)c1` [Compound 41, (4-ethynyl-2-fluorophenyl)(6-(methyl(7H-pyrrolo[2,3-d]pyrimidin-4-yl)amino)-2-azaspiro[3.3]heptan-2-yl)methanone], the IC50 on JAK3 was 1000 to 10000 nM; at JAK1, ≤ 10 nM; at JAK2, 10 to 100 nM.

`CC#Cc1ccc(C(=O)N2CC3(CC(N(C)c4ncnc5[nH]ccc45)C3)C2)cc1` [Compound 42, (6-(methyl(7H-pyrrolo[2,3-d]pyrimidin-4-yl)amino)-2-azaspiro[3.3]heptan-2-yl)(4-(prop-1-yn-1-yl)phenyl)methanone]: the IC50 was 1000 to 10000 nM at JAK3, ≤ 10 nM on JAK1 and 10 to 100 nM at JAK2.

For the molecule `C#Cc1ccc(C(=O)N2CC3(CC(N(C)c4ncnc5[nH]ccc45)C3)C2)c(Cl)c1` [Compound 43, (2-chloro-4-ethynylphenyl)(6-(methyl(7H-pyrrolo[2,3-d]pyrimidin-4-yl)amino)-2-azaspiro[3.3]heptan-2-yl)methanone], the IC50 on JAK3 was 1000 to 10000 nM; at JAK1, ≤ 10 nM; at JAK2 it was 100 to 1000 nM.

Take `Cc1cc(C#N)ccc1C(=O)N1CC2(CC(N(C)c3ncnc4[nH]ccc34)C2)C1` [Compound 44, 3-methyl-4-(6-(methyl(7H-pyrrolo[2,3-d]pyrimidin-4-yl)amino)-2-azaspiro[3.3]heptane-2-carbonyl)benzonitrile]: the values for the IC50 at JAK3, on JAK1 and at JAK2 were ≥ 10000 nM, 100 to 1000 nM and 1000 to 10000 nM, respectively.
